Laboratory results reported in patent publication US5789604A, “Isolation, characterization and structures of new antibiotic components produced by fungal culture 07F275” (priority 1993, dated 1998).

How the values were obtained:
[1] = system: Fusarium oxysporum Schlechtend: Fr.f.sp. cucumerinim; assay: in vitro inhibition of mycelial growth, FUSOXC; format: cell-based
Description: (§1) in Vitro Evaluation of the Inhibition of the Mycelial Growth by Target (Table 3)
(§2) Severe soilborne diseases such as damping off, seedling blight, crown rot, and root rot, among others are caused by certain plant pathogenic fungi. An in Vitro assay is conducted to determine whether test compounds will inhibit the mycelial growth of said fungi. Pathogens, the method of testing, and the rating system used are reported below.
(§3) General Procedure for the in Vitro Fungicide Screen Assay fungi included the following plant pathogens: FUSOXC Fusarium oxysporum Schlechtend: Fr.f.sp. cucumerinim J. H. Owen
(§4) The test compound (2.5-10 mg) is dissolved in 0.5 ml acetone, diluted with 4.5 ml sterile deionized water, and mixed with 95 ml of an autoclaved and partially cooled, chemically defined agar medium in a 250 ml flask. Test compounds that are insoluble are prepared as a fine suspension ultrasonically or with a glass tissue grinder, before addition to the medium. The chemically defined medium (CDM) used in these experiments is as follows:
(§5) CDM is sterilized by autoclaving or by filtration through a […]
(§6) The mixture of test compound and agar medium as described above is poured into several 100 mm×15 mm sterile plastic plates and allowed to solidify. The surface of each plate is inoculated with a single disc of mycelium and agar cut with an 8 mm diameter cork borer from actively growing cultures of assay fungi on a chemically defined agar medium. The plates are incubated at room temperature. Growth inhibition is determined when the mycelial growth on unamended control media has reached the edge of the petri plates. The time interval varies depending on the growth rate of the fungus. Each colony diameter is measured and compared with the untreated control and the percent inhibition is calculated as follows: [formula]
(§7) Each test includes a solvent blank consisting of the formulation without a test compound in addition to the untreated control.

Plasmopara viticola = assay: in vivo evaluation as fungicidal agents, grape downy mildew; settings: for disease control rating GDM: grape downy mildew
Description: (§8) in Vivo Evaluation as Fungicidal Agents (Table 2)
(§9) Compounds are dissolved in acetone, diluted to the desired concentration with water and surfactant and sprayed onto the test plants. After drying, the test plants are treated with fungal inoculum. When disease symptom development is optimal, plants are rated for disease control. Inoculated untreated plants, solvent/surfactant treated plants and plants treated with a reference standard are used for comparison.
(§10) Compounds are rated for control of each disease according to the rating scale shown below: […]

Pythium ultimam = assay: in vitro inhibition of mycelial growth, PYTHUL; format: cell-based; settings: for activity against Pythium: in vitro
Description: as §1, §2, §3
PYTHUL Pythium ultimam Trow
as §4, §5, §6, §7

Venturia inaequalis = assay: in vivo evaluation as fungicidal agents, apple scab
Description: as §8, §9
AS Apple scab Venturia inaequalis
as §10

Pyricularia oryzae = settings: in vivo
Leptosphaeria nodurum = assay: in vivo evaluation as fungicidal agents, wheat septoria nodorum
[2] = system: Erysiphe graminis f.sp. tritici; assay: in vivo evaluation as fungicidal agents, wheat powdery mildew
Description: as §8, §9
WPM Wheat powdery mildew
as §10

[3] = system: Rhizoctonia solani Kuehn AG1 1A; assay: in vitro inhibition of mycelial growth, RHIZSO; format: cell-based
Description: as §1, §2, §3
(§11) RHIZSO Rhizoctonia solani Kuehn AG1 1A
as §4, §5, §6, §7

[4] = system: Psudocercosporella herpotrichoides; assay: in vitro inhibition of mycelial growth, PSDCHE; format: cell-based
Description: as §1, §2, §3
(§12) PSDCHE Psudocercosporella herpotrichoides Deighton
as §4, §5, §6, §7

Botrytis cinerea = assay: in vivo evaluation as fungicidal agents, pepper botrytis
Description: as §8, §9
PB Pepper botrytis Botrytis cinerea
as §10

other fungi = assay: in vitro inhibition of mycelial growth, other fungi; format: cell-based
Description: as §1, §2, §3, §12, §11
The test compound (2.5-10 mg) is dissolved in 0.5 ml acetone, diluted with 4.5 ml sterile deionized water, and mixed with 95 ml of an autoclaved and partially cooled, chemically defined agar medium in a 250 ml flask. […]
The mixture of test compound and agar medium as described above is poured into several 100 mm×15 mm sterile plastic plates and allowed to solidify. […] Growth inhibition is determined when the mycelial growth on unamended control media has reached the edge of the petri plates. […] Each colony diameter is measured and compared with the untreated control and the percent inhibition is calculated as follows: [formula]

Alternaria solani = assay: in vivo evaluation as fungicidal agents, tomato early blight
Description: as §8, §9, §10

Cercospora beticola = assay: in vivo evaluation as fungicidal agents, sugar beet cercospora
Description: as §8, §9
SBC Sugar beet cercospora
as §10

## O=C1[C@@H]2O[C@@H]2C2(Oc3cccc4cccc(c34)O2)[C@]23O[C@]12[C@H](O)C=CC3=O [07F275sigma]
[1]; 1.0 ppm
  mycelial inhibition FUSOXC: 0
[1]; 10.0 ppm
  mycelial inhibition FUSOXC: 0
[1]; 25.0 ppm
  mycelial inhibition FUSOXC: 0
Plasmopara viticola; 12.5 ppm
  disease control rating GDM: 0 (0)
Plasmopara viticola; 50.0 ppm
  disease control rating GDM: 4 (45-59)
Plasmopara viticola; 200.0 ppm
  disease control rating GDM: 6 (75-89)
Plasmopara viticola; greenhouse test, 200 ppm
  reduction of disease severity, GDM: about 85%
Plasmopara viticola; greenhouse test, dosages lower than 200 ppm
  disease control, GDM: Little to no control
Pythium ultimam; 1.0 ppm
  mycelial inhibition PYTHUL: 3
Pythium ultimam; 10.0 ppm
  mycelial inhibition PYTHUL: 7
Pythium ultimam; 10 ppm
  activity against Pythium: active
Pythium ultimam; 25.0 ppm
  mycelial inhibition PYTHUL: 7
Pythium ultimam; dosages lower than 10 ppm
  activity against Pythium: not at lower dosages
Venturia inaequalis; 12.5 ppm
  disease control rating AS: 0 (0)
Venturia inaequalis; 50.0 ppm
  disease control rating AS: 0 (0)
Venturia inaequalis; 200.0 ppm
  disease control rating AS: 0 (0)
Pyricularia oryzae
  disease control, RB: Little to no control
  reduction of disease severity, RB: about 85%
Leptosphaeria nodurum; 12.5 ppm
  disease control rating WSN: 0 (0)
Leptosphaeria nodurum; 50.0 ppm
  disease control rating WSN: 0 (0)
Leptosphaeria nodurum; 200.0 ppm
  disease control rating WSN: 0 (0)
[2]; 12.5 ppm
  disease control rating WPM: 0 (0)
[2]; 50.0 ppm
  disease control rating WPM: 0 (0)
[2]; 200.0 ppm
  disease control rating WPM: 0 (0)
[3]; 1.0 ppm
  mycelial inhibition RHIZSO: 1
[3]; 10.0 ppm
  mycelial inhibition RHIZSO: 1
[3]; 25.0 ppm
  mycelial inhibition RHIZSO: 1
[4]; 1.0 ppm
  mycelial inhibition PSDCHE: 1
[4]; 10.0 ppm
  mycelial inhibition PSDCHE: 1
[4]; 25.0 ppm
  mycelial inhibition PSDCHE: 1
Botrytis cinerea; 12.5 ppm
  disease control rating PB: 0 (0)
Botrytis cinerea; 50.0 ppm
  disease control rating PB: 0 (0)
Botrytis cinerea; 200.0 ppm
  disease control rating PB: 0 (0)
Other fungi
  activity against other fungi in vitro: Little or no activity
Alternaria solani; 12.5 ppm
  disease control rating TEB: 0 (0)
Alternaria solani; 50.0 ppm
  disease control rating TEB: 0 (0)
Alternaria solani; 200.0 ppm
  disease control rating TEB: 0 (0)
Cercospora beticola; 12.5 ppm
  disease control rating SBC: 0 (0)
Cercospora beticola; 50.0 ppm
  disease control rating SBC: 0 (0)
Cercospora beticola; 200.0 ppm
  disease control rating SBC: 0 (0)
